{"source": "patent US20130274281A1", "about": "“METHODS OF TREATING METASTATIC BREAST CANCER WITH 4-IODO-3-NITROBENZAMIDE AND IRINOTECAN” (BiPar Sciences, Inc., priority 2010, published 2013)", "key": {"advanced solid tumors [1]": {"test_system": "advanced solid tumors", "experiment": "4-iodo-3-nitrobenzamide in combination with cytotoxic chemotherapeutic agents, safety and best response", "assay_type": "in vivo, human", "procedure": "42 subjects (advanced solid tumors) were treated with 4-iodo-3-nitrobenzamide in combination with cytotoxic chemotherapeutics agents (topotecan, temozolomide, gemcitabine, or carboplatin/taxol) at 4-iodo-3-nitrobenzamide doses of 1.1, 2.0, 2.8, 4.0 and 5.6 mg/kg."}, "advanced solid tumors [2]": {"test_system": "advanced solid tumors", "assay_type": "in vivo, human", "procedure": "Phase 1: 4-iodo-3-nitrobenzamide is administered intravenously twice weekly (days 1 and 4 of each week) for 3 weeks, followed by a one week 4-iodo-3-nitrobenzamide treatment-free period per one 28-day cycle. Cycle one (day 1 through day 28) is defined as the Safety Phase of the study during which DLTs is assessed and the MTD is determined. The remainder of the study is termed the Maintenance Phase. A subject may participate in this study until he/she experiences a drug intolerance or disease progression. […] For non-measurable disease, best medical practices are used to determine disease progression.\nIn cohort A (starting dose), a single subject receives 4-iodo-3-nitrobenzamide twice weekly at a dose level of 0.5 mg/kg based on weight measured at screening. If this subject experiences a grade 2 toxicity or higher, then 3 additional subjects would be enrolled in this cohort (only 2 additional subjects would be enrolled in this cohort if the initial subject receives at least 80% of the planned cycle 1 doses). If no additional subjects dosed in this cohort experience a DLT, then dose escalation would occur as below. If no DLT occurs in the initial subject, dose escalation would occur as below. The safety review group has the ability to recommend dose escalation (opening of a new cohort), without expansion with additional subjects, for cases of grade 2 toxicity seen in a single subject that are deemed not to be clinically relevant and/or study treatment-related. Dose Escalation Prior to Grade 2 Toxicity (Potential Cohorts B-J): Until a subject experiences a grade 2 toxicity or higher, one subject would be initially enrolled in all subsequent cohorts at planned 100% dose level increases, with possible cohort expansion as described for cohort A. Safety data are reviewed after 6 doses of 4-iodo-3-nitrobenzamide, and a decision to escalate to the next cohort would be made if no subject experiences a grade 2 toxicity or higher. […]"}, "[3]": {"test_system": "panel of 63 other kinases, including native c-Ab1", "conditions": "background statement; cited from earlier work"}, "Bcr-ab1": {"test_system": "Bcr-ab1", "conditions": "background statement; read-out: IC50, inhibition of Bcr-ab1 phosphorylation; cited from earlier work"}, "[4]": {"test_system": "cells not expressing Bcr-Ab1", "conditions": "background statement; cited from earlier work"}}}
{"smiles": "NC(=O)c1ccc(I)c([N+](=O)[O-])c1", "note": "[4-iodo-3-nitrobenzamide]", "values": [{"measurement": "tolerability", "setting": "advanced solid tumors [1]; 42 subjects, advanced solid tumors, with topotecan, temozolomide, gemcitabine or carboplatin/taxol, BA 1.1, 2.0, 2.8, 4.0 and 5.6 mg/kg, preliminary safety data", "result": "well tolerated at all dose levels tested"}, {"measurement": "relation of serious adverse events to study drug", "setting": "advanced solid tumors [1]; 42 subjects, combination with cytotoxic agents, judged by study investigators", "result": "deemed not related to study drug"}, {"measurement": "SAEs attributed to drug", "setting": "advanced solid tumors [1]; either study (monotherapy, 24 subjects; combination with cytotoxic agents, 42 subjects)", "result": "no SAEs attributed to 4-iodo-3-nitrobenzamide in either study"}, {"measurement": "additional toxicities when combined with standard cytotoxic chemotherapy", "setting": "advanced solid tumors [1]; safety data of both studies", "result": "would not cause any additional toxicities"}, {"measurement": "potentiation of known toxicities of standard chemotherapeutic agents", "setting": "advanced solid tumors [1]; safety data of both studies", "result": "no evidence that 4-iodo-3-nitrobenzamide would potentiate any known toxicities"}, {"measurement": "best response measured to date", "setting": "advanced solid tumors [2]; 24 subjects, monotherapy 0.5-8.0 mg/kg", "result": "stable disease present through at least cycle 2 of the study for six subjects"}, {"measurement": "dose limiting toxicities (DLTs)", "setting": "advanced solid tumors [2]; in vivo", "result": "no dose limiting toxicities (DLTs) were observed at any dose level"}, {"measurement": "cycles of treatment completed with continued stable disease", "setting": "advanced solid tumors [2]; one subject, monotherapy", "result": 9, "unit": "cycles"}]}
{"smiles": "NC(=O)c1cccc(-c2cc(Nc3ccc(OC(F)(F)F)cc3)ncn2)c1", "note": "[GNF-2]", "values": [{"measurement": "inhibition of a panel of 63 other kinases, including native c-Ab1", "setting": "[3]", "result": "does not inhibit"}, {"measurement": "IC50", "setting": "Bcr-ab1", "result": 267, "unit": "nM"}, {"measurement": "toxicity towards cells not expressing Bcr-Ab1", "setting": "[4]", "result": "complete lack of toxicity"}]}
